The text below walks through data of PubChem BioAssay (NCI).

Test systems include 786-0 renal; HCT-116 colon; HS 578T breast; HT29 colon; M14 melanoma; MDA-MB-231 breast; NCI-H23 lung; RPMI-8226 leukemia; SF-295 CNS; SF-539 CNS; SK-MEL-2 melanoma; SNB-19 CNS; T-47D breast; UACC-257 melanoma; UACC-62 melanoma.
Holding throughout (assay): NCI-60 cell line screen, 48 h

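1) Cells in 96-well plates. 2) Compound, 48 h, 5 concentrations. 3) Linear interpolation between surrounding doses. 4) Unreached endpoint = highest concentration. Definition used: TGI = concentration required for complete inhibition of growth.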

Turning to `[N-]=[N+]=NC1=C(N=[N+]=[N-])c2cccc3cccc(c23)C1=O`, the TGI with 786-0 renal, in the assay with HCT-116 colon, with HS 578T breast, in the assay on HT29 colon, in the assay with M14 melanoma and in the assay on MDA-MB-231 breast was greater than 100 µM in each case. The TGI in the assay on NCI-H23 lung, in the assay on RPMI-8226 leukemia, with SF-295 CNS, in the assay on SF-539 CNS, in the assay on SK-MEL-2 melanoma and with SNB-19 CNS was greater than 100 µM each time. Moreover, the TGI in the assay with T-47D breast, in the assay with UACC-257 melanoma and in the assay on UACC-62 melanoma was greater than 100 µM each time.
Turning to `CN(Cc1cnc2nc(N)nc(N)c2n1)c1ccc(C(=O)NC2CCCCC2)cc1`, the TGI is greater than 100 µM in the assay with 786-0 renal; greater than 100 µM in the assay with HCT-116 colon; 63.4 µM in the assay on HS 578T breast; 31 µM in the assay with HT29 colon; 29 µM in the assay on M14 melanoma; greater than 100 µM in the assay with MDA-MB-231 breast. Further, the TGI in the assay with NCI-H23 lung was greater than 100 µM; in the assay on RPMI-8226 leukemia, greater than 100 µM; with SF-295 CNS, greater than 100 µM; with SF-539 CNS, 29.7 µM; in the assay with SK-MEL-2 melanoma, greater than 100 µM; in the assay on SNB-19 CNS, 38.7 µM. The TGI in the assay on T-47D breast was greater than 100 µM; in the assay with UACC-257 melanoma it was greater than 100 µM; in the assay with UACC-62 melanoma, 32 µM.
Turning to `N#Cc1c(-c2ccccc2)cc(Nc2ccc(F)cc2)n2c1nc1ccccc12`, the TGI was 10 µM in the assay with 786-0 renal; 6.06 µM in the assay on HCT-116 colon; 4.68 µM in the assay on HS 578T breast; 6.43 µM in the assay on HT29 colon; greater than 100 µM with M14 melanoma; 65.2 µM in the assay with MDA-MB-231 breast. For the same compound, the TGI is greater than 27.4 µM in the assay on NCI-H23 lung; greater than 100 µM in the assay with RPMI-8226 leukemia; greater than 29.6 µM in the assay with SF-295 CNS; greater than 22.7 µM in the assay on SF-539 CNS; 4.35 µM in the assay on SK-MEL-2 melanoma; greater than 100 µM in the assay with SNB-19 CNS. Further, the TGI in the assay with T-47D breast came to 19 µM; in the assay on UACC-257 melanoma, 8.78 µM; in the assay on UACC-62 melanoma, 14.8 µM.
For the compound `c1cc(-c2ccc(Oc3ccc(-c4ccncc4)cc3)cc2)ccn1`, the TGI with 786-0 renal is greater than 100 µM; with HCT-116 colon, greater than 100 µM; in the assay on HS 578T breast, greater than 69.9 µM; in the assay on HT29 colon it was greater than 49.6 µM; in the assay on M14 melanoma it was greater than 100 µM; in the assay with MDA-MB-231 breast, greater than 100 µM. For the same compound, the TGI in the assay with NCI-H23 lung was greater than 34 µM; in the assay on RPMI-8226 leukemia, 4.96 µM; in the assay with SF-295 CNS, greater than 100 µM; with SF-539 CNS, greater than 100 µM; in the assay with SK-MEL-2 melanoma, greater than 100 µM; in the assay with SNB-19 CNS it was greater than 100 µM. The TGI in the assay with T-47D breast was greater than 100 µM; in the assay on UACC-257 melanoma it was greater than 68.3 µM; in the assay with UACC-62 melanoma it was greater than 100 µM.
For the compound `Cc1ccc2c(c1)C(=O)c1ccc(C)nc1C2=O`, the TGI in the assay with 786-0 renal was greater than 100 µM; in the assay on HCT-116 colon, 42.1 µM; in the assay with HS 578T breast, greater than 100 µM; in the assay on HT29 colon, greater than 100 µM; in the assay with M14 melanoma it was greater than 100 µM; in the assay on MDA-MB-231 breast, greater than 100 µM. Also, the TGI in the assay on NCI-H23 lung is 58.9 µM; with RPMI-8226 leukemia, greater than 100 µM; in the assay with SF-295 CNS, greater than 100 µM; in the assay on SF-539 CNS, 68.5 µM; with SK-MEL-2 melanoma, greater than 100 µM; in the assay on SNB-19 CNS, 63.6 µM. Further, the results for the TGI in the assay with T-47D breast, in the assay with UACC-257 melanoma and in the assay on UACC-62 melanoma were greater than 100 µM, 48.9 µM and 48.9 µM, respectively.
In the case of `C=CCSC1=N/C(=C\c2ccco2)C(=O)N1CC=C`, the TGI with 786-0 renal, in the assay on HCT-116 colon, with HS 578T breast, with HT29 colon, with M14 melanoma and with MDA-MB-231 breast was greater than 100 µM throughout. The TGI in the assay with NCI-H23 lung, with RPMI-8226 leukemia, with SF-295 CNS, in the assay with SF-539 CNS, in the assay on SK-MEL-2 melanoma and with SNB-19 CNS was greater than 100 µM in each case. The TGI with T-47D breast, in the assay with UACC-257 melanoma and with UACC-62 melanoma was greater than 100 µM in each case.
With `Nc1nc(SCC(=O)c2ccccc2)nc2nc3c(c(-c4ccccc4)c12)CCCC3`, the TGI in the assay with 786-0 renal is 56.1 µM; in the assay with HCT-116 colon it was greater than 100 µM; with HS 578T breast, 64 µM; with HT29 colon it was greater than 100 µM; with M14 melanoma it was greater than 100 µM; in the assay with MDA-MB-231 breast, greater than 100 µM. The TGI in the assay on NCI-H23 lung, in the assay with RPMI-8226 leukemia, in the assay on SF-539 CNS, with SK-MEL-2 melanoma, with SNB-19 CNS and in the assay on T-47D breast was greater than 100 µM in each case. Further, the TGI in the assay with UACC-257 melanoma and with UACC-62 melanoma was greater than 100 µM throughout.
On to `COc1cc(/C=C2\N=C(c3ccccc3)N(/N=C/c3cc4cc(C)ccc4nc3Cl)C2=O)ccc1O`, for which the TGI in the assay with 786-0 renal is greater than 100 µM; with HCT-116 colon, 51.8 µM; with HS 578T breast it was greater than 100 µM; in the assay on HT29 colon, greater than 100 µM; in the assay with M14 melanoma it was greater than 100 µM; in the assay with MDA-MB-231 breast, greater than 100 µM. The TGI in the assay with RPMI-8226 leukemia is 80.8 µM; in the assay with SF-295 CNS it was greater than 100 µM; in the assay on SF-539 CNS it was greater than 100 µM; in the assay on SK-MEL-2 melanoma it was 38.4 µM; with SNB-19 CNS it was greater than 100 µM; in the assay on T-47D breast, greater than 100 µM. The TGI in the assay with UACC-257 melanoma and in the assay with UACC-62 melanoma was greater than 100 µM in each case.
As to `COC(=O)C(NC(=O)C12CCC(C)(C(=O)O1)C2(C)C)c1cc(C(C)(C)C)c(O)c(C(C)(C)C)c1` (configuration not stated), the TGI with 786-0 renal, in the assay with HCT-116 colon, in the assay on HS 578T breast, in the assay on HT29 colon, in the assay on M14 melanoma and in the assay on MDA-MB-231 breast was greater than 100 µM throughout. Besides, the TGI in the assay with NCI-H23 lung, in the assay with RPMI-8226 leukemia, with SF-295 CNS, with SF-539 CNS, in the assay on SK-MEL-2 melanoma and in the assay on SNB-19 CNS was greater than 100 µM each time. Moreover, the TGI in the assay with T-47D breast and in the assay with UACC-62 melanoma was greater than 100 µM each time.
As for `N#CCCN(CCC#N)c1ccc(/C=C2\N=C(c3ccccc3)N(NC(=O)c3ccncc3)C2=O)cc1`, the TGI in the assay on 786-0 renal, in the assay on HCT-116 colon, in the assay on HS 578T breast, in the assay with HT29 colon, with M14 melanoma and in the assay on MDA-MB-231 breast was greater than 100 µM in each case. Further, the TGI in the assay on RPMI-8226 leukemia, in the assay with SF-295 CNS, with SF-539 CNS, in the assay with SK-MEL-2 melanoma, with SNB-19 CNS and in the assay on T-47D breast was greater than 100 µM in each case. Also, the TGI with UACC-257 melanoma and in the assay on UACC-62 melanoma was greater than 100 µM each time.
Turning to `CSc1ccc(C=C2N=C(c3ccccc3)N(c3cc(C(=O)c4ccccc4)ccc3N3C(=O)/C(=C/c4ccc(SC)cc4)N=C3c3ccccc3)C2=O)cc1`, the TGI in the assay with 786-0 renal, with HCT-116 colon, in the assay with HS 578T breast, in the assay on HT29 colon, with M14 melanoma and in the assay with MDA-MB-231 breast was greater than 100 µM throughout. In addition, the TGI is greater than 100 µM in the assay on RPMI-8226 leukemia; greater than 100 µM in the assay on SF-295 CNS; 79.5 µM in the assay on SF-539 CNS; greater than 100 µM in the assay with SK-MEL-2 melanoma; greater than 100 µM in the assay with SNB-19 CNS; greater than 100 µM with T-47D breast. The TGI in the assay on UACC-257 melanoma and with UACC-62 melanoma was greater than 100 µM in each case.
As for `O=C1Nc2ccccc2/C1=C\c1c(Cl)[nH]c2ccccc12`, the TGI with 786-0 renal was 3.66 µM; in the assay with HS 578T breast, 2.57 µM; in the assay with HT29 colon, 0.598 µM; in the assay on M14 melanoma it was 4.12 µM; in the assay on MDA-MB-231 breast it was 14.3 µM; in the assay with NCI-H23 lung it was 16.1 µM. Further, the TGI in the assay with RPMI-8226 leukemia was 3.34 µM; in the assay on SF-295 CNS, 0.956 µM; with SF-539 CNS, 1.43 µM; with SK-MEL-2 melanoma, 6.67 µM; in the assay on SNB-19 CNS, 5.21 µM; in the assay on T-47D breast, greater than 100 µM. In addition, the TGI amounted to 17 µM with UACC-257 melanoma and 9.75 µM in the assay on UACC-62 melanoma.
Take `COC(=O)C1CCCCCCCCCCC12SCCCS2` (configuration not stated): the TGI came to 28.5 µM in the assay on 786-0 renal; 30.2 µM with HCT-116 colon; 90.5 µM in the assay with HS 578T breast; 91.5 µM with HT29 colon; 31 µM in the assay with M14 melanoma; 45.2 µM with MDA-MB-231 breast. Further, the TGI with NCI-H23 lung was greater than 100 µM; in the assay with SF-295 CNS, 39 µM; in the assay on SF-539 CNS, 47.4 µM; in the assay on SK-MEL-2 melanoma, 41.9 µM; in the assay on SNB-19 CNS it was 83.2 µM; in the assay on T-47D breast, greater than 100 µM. Besides, the values for the TGI in the assay with UACC-257 melanoma and with UACC-62 melanoma were 40.2 µM and 59.4 µM, respectively.
For the compound `COC(=O)[C@@H](COC(=O)/C=C/c1ccc(OC(C)=O)c(OC(C)=O)c1)NC(=O)/C=C/c1ccc(OC(C)=O)c(OC(C)=O)c1`, the TGI in the assay with 786-0 renal amounted to 73.7 µM; in the assay with HCT-116 colon, 39.5 µM; in the assay with HS 578T breast it was 94.6 µM; in the assay on HT29 colon, 88 µM; in the assay with M14 melanoma, 73.8 µM; with MDA-MB-231 breast, 82.4 µM. Also, the TGI with NCI-H23 lung was greater than 100 µM; with RPMI-8226 leukemia it was greater than 100 µM; with SF-539 CNS, 74.7 µM; in the assay with SK-MEL-2 melanoma, 55.4 µM; with SNB-19 CNS it was greater than 100 µM; with T-47D breast, 34.9 µM. The TGI in the assay on UACC-257 melanoma was greater than 100 µM; with UACC-62 melanoma, 45.9 µM.
